# From publication PMC7215599, “Synthesis, Antitumor Evaluation, Molecular Modeling and Quantitative Structure–Activity Relationship (QSAR) of Novel 2-[(4-Amino-6-N-substituted-1,3,5-triazin-2-yl)methylthio]-4-chloro-5-methyl-N-(1H-benzo[d]imidazol-2(3H)-ylidene)Benzenesulfonamides” (International Journal of Molecular Sciences, 2020)
# What was measured:
# [1] = test system: HeLa (cervical cancer) cell line; assay: MTT cell viability assay, HeLa; type: cell-based, human; settings: 72 h, MTT, 1-100 µM, mean ± SD
# Procedure: (§1) Compounds 6–49 were evaluated in vitro for their effects on the viability of the three human cancer cell lines: HCT-116 (colon cancer), MCF-7 (breast cancer) and HeLa (cervical cancer) as well as the non-cancerous keratinocyte cell line (HaCaT). The concentration required for 50% inhibition of cell viability IC50 was calculated and compared with the reference drug cisplatin, the results are shown in Table 1.
# (§2) Cell lines: colon cancer (HCT-116), breast cancer (MCF-7), cervical cancer (HeLa), the human keratinocyte cell line (HaCaT); NT—not tested; IC50 was measured at concentrations 1, 10, 25, 50, and 100 µM. IC50 values are expressed as the mean ± SD of at last three independent experiments.
# (§3) All chemicals, if not stated otherwise, were obtained from Sigma–Aldrich (St. Louis, MO, USA). The HCT-116 cell lines was purchased from ATCC (ATCC-No: CCL-247), while the MCF-7, HeLa and HaCaT cell lines were purchased from Cell Lines Services (Eppelheim, Germany). Cells were cultured in Dulbecco’s modified Eagle’s medium (DMEM) supplemented with 10% fetal bovine serum, 2 mM glutamine, 100 units/mL penicillin, and 100 µg/mL streptomycin. Cultures were maintained in a humidified atmosphere with 5% carbon dioxide at 37 °C in an incubator (Heraceus, HeraCell).
# (§4) Cell viability was examined using the MTT (3-(4,5-dimethylthiazol-2-yl)-2,5-diphenyltetrazolium bromide) assay. Cells were seeded in 96-well plates at a density of 5 × 10^3 cells/well and treated for 72 h with the tested compounds in the concentration range of 1–100 µM (1, 10, 25, 50 and 100 µM). Then, MTT (0.5 mg/mL) was added to the medium and cells were further incubated for 2 h at 37 °C. In the next stage, cells were lysed with DMSO and the absorbance of the formazan solution was measured at 550 nm with a plate reader (1420 multilabel counter, Victor, Jügesheim, Germany). The experiment was performed in triplicate. Values are expressed as the mean ± SD of at least three independent experiments. Cisplatin was used as a positive control.
# [2] = test system: MCF-7 (breast cancer) cell line; assay: MTT cell viability assay, MCF-7; type: cell-based, human; settings: MTT, 72 h, 1-100 µM, mean ± SD
# Procedure: as §1, §2, §3, §4
# [3] = test system: HCT-116 (colon cancer) cell line; assay: MTT cell viability assay, HCT-116; type: cell-based, human; settings: Homo sapiens, HCT-116, 72 h, MTT, 72 h, 1-100 µM, mean ± SD
# Procedure: as §1, §2, §3, §4
# [4] = test system: HaCaT (non-cancerous keratinocyte cell line); assay: MTT cell viability assay, HaCaT; type: cell-based; settings: Homo sapiens, 72 h, 1-100 µM, mean ± SD, non-cancerous cells
# Procedure: as §1, §2, §3, §4
SMILES,"IC50 ([1]; Homo sapiens, HeLa) [µM]",IC50 [1] [µM],"IC50 ([2]; Homo sapiens, MCF7, 72 h) [µM]",IC50 [2] [µM],IC50 [3] [µM],IC50 [4] [µM]
"COc1ccc(N2CCN(c3nc(N)nc(CSc4cc(Cl)c(C)cc4S(=O)(=O)N=c4[nH]c5ccccc5[nH]4)n3)CC2)cc1 [Compound 27, 2-[{4-Amino-6-[4-(4-methoxyphenyl)piperazin-1-yl]-1,3,5-triazin-2-yl}metylthio]-N-(1H-benzo[d]imidazol-2(3H)-ylidene)-4-chloro-5-methylbenzenesulfonamide]",> 100,74 ± 1,> 100,110 ± 3,35 ± 1,98 ± 2
"COc1ccccc1N1CCN(c2nc(N)nc(CSc3cc(Cl)c(C)cc3S(=O)(=O)N=c3[nH]c4ccccc4[nH]3)n2)CC1 [Compound 28, 2-[{4-Amino-6-[4-(2-methoxyphenyl)piperazin-1-yl]-1,3,5-triazin-2-yl}metylthio]-N-(1H-benzo[d]imidazol-2(3H)-ylidene)-4-chloro-5-methylbenzenesulfonamide]",24 ± 1,–,24 ± 1,–,16 ± 1,35 ± 1
"Cc1cc(S(=O)(=O)N=c2[nH]c3ccccc3[nH]2)c(SCc2nc(N)nc(N3CCN(Cc4ccccc4)CC3)n2)cc1Cl [Compound 30, 2-{[4-Amino-6-(4-benzylpiperazin-1-yl)-1,3,5-triazin-2-yl]methylthio}-N-(1H-benzo[d]imidazol-2(3H)-ylidene)-4-chloro-5-methylbenzenesulfonamide]",18 ± 1,–,24 ± 1,–,17 ± 0.5,36 ± 2
Cc1cc(S(=O)(=O)N=c2[nH]c3ccccc3[nH]2)c(SCc2nc(N)nc(N3CCN(C(c4ccccc4)c4ccccc4)CC3)n2)cc1Cl [Compound 31],39 ± 1,–,46 ± 2,–,18 ± 1,54 ± 2
"CC1=NN(c2nc(N)nc(CSc3cc(Cl)c(C)cc3S(=O)(=O)N=c3[nH]c4ccc(F)cc4[nH]3)n2)C(C)(C)C1 [Compound 33, 2-{[4-Amino-6-(3,5,5-trimethyl-4,5-dihydro-1H-pyrazol-1-yl)-1,3,5-triazin-2-yl]metylthio}-4-chloro-N-(5-fluoro-1H-benzo[d]imidazol-2(3H)-ylidene)-5-methylbenzenesulfonamide]",30 ± 2,–,35 ± 2,–,19 ± 1,48 ± 2
"Cc1cc(S(=O)(=O)N=c2[nH]c3ccc(F)cc3[nH]2)c(SCc2nc(N)nc(Nc3cccc(Cl)c3)n2)cc1Cl [Compound 35, 2-[{4-Amino-6-[(3-chlorophenyl)amino]-1,3,5-triazin-2-yl}methylthio]-4-chloro-N-(5-fluoro-1H-benzo[d]imidazol-2(3H)-ylidene)-5-methylbenzenesulfonamide]",39 ± 1,–,40 ± 1,–,37 ± 1,52 ± 2
"Cc1cc(S(=O)(=O)N=c2[nH]c3ccc(F)cc3[nH]2)c(SCc2nc(N)nc(N(C)c3ccc(Cl)cc3)n2)cc1Cl [Compound 36, 2-[{4-Amino-6-[(4-chlorophenyl)(methyl)amino]-1,3,5-triazin-2-yl}metylthio]-4-chloro-N-(5-fluoro-1H-benzo[d]imidazol-2(3H)-ylidene)-5-methylbenzenesulfonamide]",29 ± 1,–,37 ± 2,–,18 ± 0.5,49 ± 1
"Cc1cc(S(=O)(=O)N=c2[nH]c3ccc(F)cc3[nH]2)c(SCc2nc(N)nc(N3CCN(c4ccccc4)CC3)n2)cc1Cl [Compound 37, 2-[{[4-Amino-6-(4-phenylpiperazin-1-yl)-1,3,5-triazin-2-yl]methyl}thio]-4-chloro-N-(5-fluoro-1H-benzo[d]imidazol-2(3H)-ylidene)-5-methylbenzenesulfonamide]",20 ± 1,–,27 ± 2,–,17 ± 1,39 ± 1
"Cc1cc(S(=O)(=O)N=c2[nH]c3ccc(F)cc3[nH]2)c(SCc2nc(N)nc(N3CCN(c4ccc(F)cc4)CC3)n2)cc1Cl [Compound 38, 2-[{4-Amino-6-[4-(4-fluorophenyl)piperazin-1-yl]-1,3,5-triazin-2-yl}metylthio]-4-chloro-N-(5-fluoro-1H-benzo[d]imidazol-2(3H)-ylidene)-5-methylbenzenesulfonamide]",18 ± 1,–,24 ± 1,–,14 ± 1,38 ± 2
"Cc1cc(S(=O)(=O)N=c2[nH]c3ccc(F)cc3[nH]2)c(SCc2nc(N)nc(N3CCN(c4ccc(Cl)cc4)CC3)n2)cc1Cl [Compound 39, 2-[{4-Amino-6-[4-(4-chlorophenyl)piperazin-1-yl]-1,3,5-triazin-2-yl}metylthio]-4-chloro-N-(5-fluoro-1H-benzo[d]imidazol-2(3H)-ylidene)-5-methylbenzenesulfonamide]",28 ± 2,–,> 100,74 ± 2,35 ± 2,76 ± 2
"Cc1cc(S(=O)(=O)N=c2[nH]c3ccc(F)cc3[nH]2)c(SCc2nc(N)nc(N3CCN(c4ccc(Cl)c(Cl)c4)CC3)n2)cc1Cl [Compound 40, 2-[{4-Amino-6-[4-(3,4-dichlorophenyl)piperazin-1-yl]-1,3,5-triazin-2-yl}metylthio]-4-chloro-N-(5-fluoro-1H-benzo[d]imidazol-2(3H)-ylidene)-5-methylbenzenesulfonamide]",18 ± 1,–,43 ± 1,–,16 ± 1,46 ± 1
"CC1=NN(c2nc(N)nc(CSc3cc(Cl)c(C)cc3S(=O)(=O)N=c3[nH]c4ccc(Cl)cc4[nH]3)n2)C(C)(C)C1 [Compound 41, 2-{[4-Amino-6-(3,5,5-trimethyl-4,5-dihydro-1H-pyrazol-1-yl)-1,3,5-triazin-2-yl]metylthio}-4-chloro-N-(5-chloro-1H-benzo[d]imidazol-2(3H)-ylidene)-5-methylbenzenesulfonamide]",30 ± 1,–,38 ± 2,–,25 ± 1,49 ± 1
"Cc1cc(S(=O)(=O)N=c2[nH]c3ccc(Cl)cc3[nH]2)c(SCc2nc(N)nc(Nc3ccc(F)cc3)n2)cc1Cl [Compound 43, 2-[{4-Amino-6-[(4-fluorophenyl)amino]-1,3,5-triazin-2-yl}methylthio]-4-chloro-N-(5-chloro-1H-benzo[d]imidazol-2(3H)-ylidene)-5-methylbenzenesulfonamide]",45 ± 2,–,44 ± 2,–,43 ± 1,55 ± 2
"COc1ccc(Nc2nc(N)nc(CSc3cc(Cl)c(C)cc3S(=O)(=O)N=c3[nH]c4ccc(Cl)cc4[nH]3)n2)cc1 [Compound 44, 2-[{4-Amino-6-[(4-methoxyphenyl)amino]-1,3,5-triazin-2-yl}methylthio]-4-chloro-N-(5-chloro-1H-benzo[d]imidazol-2(3H)-ylidene)-5-methylbenzenesulfonamide]",50 ± 2,–,47 ± 2,–,48 ± 1,61 ± 2
"Cc1cc(S(=O)(=O)N=c2[nH]c3ccc(Cl)cc3[nH]2)c(SCc2nc(N)nc(N3CCN(c4ccccc4)CC3)n2)cc1Cl [Compound 45, 2-[{4-Amino-6-[4-(4-phenyl)piperazin-1-yl]-1,3,5-triazin-2-yl}metylthio]-4-chloro-N-(5-chloro-1H-benzo[d]imidazol-2(3H)-ylidene)-5-methylbenzenesulfonamide]",28 ± 1,–,26 ± 1,–,15 ± 1,39 ± 1
"Cc1cc(S(=O)(=O)N=c2[nH]c3ccc(Cl)cc3[nH]2)c(SCc2nc(N)nc(N3CCN(c4ccc(C(F)(F)F)cc4)CC3)n2)cc1Cl [Compound 47, 2-{[4-Amino-6-{4-[4-(trifluoromethyl)phenyl]piperazin-1-yl}-1,3,5-triazin-2-yl]methylthio}-4-chloro-N-(5-chloro-1H-benzo[d]imidazol-2(3H)-ylidene)-5-methylbenzenesulfonamide]",22 ± 1,–,24 ± 1,–,21 ± 1,38 ± 1
"Cc1cc(S(=O)(=O)N=c2[nH]c3ccc(Cl)cc3[nH]2)c(SCc2nc(N)nc(N3CCN(c4ccc(Cl)c(Cl)c4)CC3)n2)cc1Cl [Compound 48, 2-[{4-Amino-6-[4-(3,4-dichlorophenyl)piperazin-1-yl]-1,3,5-triazin-2-yl}methylthio]-4-chloro-N-(5-chloro-1H-benzo[d]imidazol-2(3H)-ylidene)-5-methylbenzenesulfonamide]",34 ± 1,–,32 ± 1,–,34 ± 2,40 ± 2
